According to patent publication US20130142815A1, “ALPHA-METHYL-TRYPTOPHAN AS AN INHIBITOR OF INDOLEAMINE DIOXYGENASE” (Georiga Health Sciences Univ. Research Inst., Inc., priority 2010, published 2013):

What was measured:
[1] = biological target: T1, ATB0,+ (Homo sapiens, UniProt Q9UN76); assay: Inward currents in ATB0,+-expressing Xenopus oocytes; type: cell-based; parameters: expressed in transfected cells; host or cells: Xenopus oocytes
T1 sequence (Q9UN76 1-642): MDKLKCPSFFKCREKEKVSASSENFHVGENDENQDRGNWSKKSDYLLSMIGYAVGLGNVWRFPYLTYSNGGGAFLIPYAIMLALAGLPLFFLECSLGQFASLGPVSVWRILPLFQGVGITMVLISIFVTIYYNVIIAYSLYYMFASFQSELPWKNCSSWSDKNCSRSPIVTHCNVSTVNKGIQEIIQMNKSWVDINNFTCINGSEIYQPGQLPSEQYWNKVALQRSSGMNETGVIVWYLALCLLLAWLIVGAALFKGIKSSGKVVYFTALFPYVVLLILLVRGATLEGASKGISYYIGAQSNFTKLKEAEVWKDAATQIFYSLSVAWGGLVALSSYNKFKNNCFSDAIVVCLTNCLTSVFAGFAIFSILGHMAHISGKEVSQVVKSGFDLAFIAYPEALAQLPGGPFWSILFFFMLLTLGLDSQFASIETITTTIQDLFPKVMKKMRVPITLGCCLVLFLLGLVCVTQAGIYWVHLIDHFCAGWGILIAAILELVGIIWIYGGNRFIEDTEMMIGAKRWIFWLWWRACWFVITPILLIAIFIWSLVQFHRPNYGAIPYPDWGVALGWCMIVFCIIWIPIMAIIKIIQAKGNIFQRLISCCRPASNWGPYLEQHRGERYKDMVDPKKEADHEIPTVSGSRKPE
Source text: Tryptophan is a substrate for ATB^0,+. […] Inhibition of glycine uptake could occur because α-MT is a transportable substrate for ATB^0,+ thus competing with glycine for the uptake process, or because it blocks the transporter without itself being transported. The Xenopus oocyte expression system can differentiate between these two modes of inhibition because transportable substrates would induce inward currents whereas blockers would not.
Next, the potency of α-MT to block the transporter under conditions that simulate those in vivo was determined (with all naturally occurring amino acids present at physiologic concentrations). ATB^0,+ accepts all proteinogenic amino acids except glutamate and aspartate. Therefore, using the Xenopus oocyte expression system, the transport activity of human ATB^0,+ was monitored in the presence of an amino acid mixture consisting of all proteinogenic amino acids, each at its respective physiologic concentration found in plasma. Inward currents were detected under these conditions in oocytes expressing human ATB^0,+. α-MT blocked the ATB^0,+-mediated inward currents in the presence of these amino acids. The inhibition was dose-dependent; the concentration of the blocker necessary to elicit 50% maximal inhibition was 255±24 μM (Karunakaran et al., 2008, Biochem J; 414: 343-355).
Although α-methyl-DL-tryptophan is a blocker of ATB^0,+, its potency is weak. […] The only commercially available α-methyltryptophan is the DL-form. Thus, an optical resolution method was developed to separate the L-isomer from the DL-form (FIG. 2). With this method, the L- and D-isomers of this compound were purified. The potencies of the two isomers as a blocker of ATB^0,+ was examined in Xenopus oocytes using the amino acid mixture simulating the plasma. The concentration of the L-isomer to elicit 50% maximal inhibition was 18±5 μM. This value is 14 times less than the corresponding value for the DL-form. With the D-isomer, the inhibition never increased beyond 40% even at 1 mM.

[2] = biological target: T1, ATB0,+; conditions: cited from earlier work
[3] = tested on: mouse colon cancer cells; assay: Mouse model of colon cancer, subcutaneous injection of mouse colon cancer cells; type: in vivo
Description: Further, alpha-methyltryptophan was administered in a mouse model of colon cancer. Following subcutaneous injection of mouse colon cancer cells into mice, mice were treated with alpha-methyltryptophan, either in drinking water or by intraperintoneal injection.

[4] = biological target: T1, ATB0,+; parameters: expressed in transfected cells; host or cells: Xenopus oocytes; conditions: tells transportable substrate from blocker; cited from earlier work
[5] = tested on: MB231 cells; assay: Mouse xenograft, MB231 ER-negative breast cancer cell line; type: in vivo; conditions: in drinking water (2 mg/ml)
Description: (§1) Mouse xenograft studies were performed with two ER-positive breast cancer cell lines (ZR75.1 and MCF7) and one ER-negative breast cancer cell line (MB231). […] Plasma concentration of alpha-methyltryptophan in mice after two weeks of administration in drinking water was […] was not detectable in control mice.

[6] = tested on: ZR75.1 cells; assay: Mouse xenograft, ZR75.1 ER-positive breast cancer cell line; type: in vivo; conditions: in drinking water (2 mg/ml)
Description: as §1

[7] = biological target: T2, indoleamine dioxygenase (IDO) (Mus musculus, UniProt P28776); assay: Cell-free IDO inhibition assay with mouse intestinal mucosal lysates as the source of IDO; type: biochemical
T2 construct: mouse intestinal mucosal lysates were used as the source of IDO in a cell-free assay system; from tissue; host or cells: mouse intestinal mucosa (lysate)
Source text: FIG. 1 presents the comparative potencies of D-, L-, and DL-isomers of 1-methyltryptophan (1-MT) and alpha-methyltryptophan (alpha-MT) for inhibition of indoleamine dioxygenase (IDO). […] In these studies, mouse intestinal mucosal lysates were used as the source of IDO in a cell-free assay system. Thus, α-MLT will produce anti-cancer effects in vivo by two different, but synergistic, mechanisms. It will block the transport function of ATB^0,+ in tumor cells, thus preventing entry of essential amino acids and glutamine, and consequently causing growth arrest and apoptosis.

[8] = tested on: MCF7 cells; assay: Mouse xenograft, MCF7 ER-positive breast cancer cell line; type: in vivo; conditions: in drinking water (2 mg/ml); in the presence of estrogen administration
Description: as §1

[9] = biological target: T3, IDO in DCs (Mus musculus, UniProt P28776); assay: Mixed lymphocyte reaction: suppression of CD8+ T cell proliferation by IDO-positive DCs, [3H]thymidine incorporation; type: cell-based
T3 construct: endogenous in cells; host or cells: CD11c+ dendritic cells from a CpG 1826-treated C57Bl6 mouse
Description: This example complements the cell-free in vitro measurements of IDO activity shown in Example 1 with a functional assay involving T cell proliferation. In this assay, CD8^+ T cells from a transgenic mouse (01.1) which carries the T-cell receptor specific for the ovalbumin peptide antigen Ser-Ile-Ile-Asn-Phe-Glu-Lys-Leu (SIINFEKL) were used. CD11c^+ dendritic cells (DCs) were also prepared from a C57B16 mouse that has been given CpG 1826 intravenously to induce IDO in DCs. A mixed lymphocyte reaction was then performed in which the ability of IDO-positive DCs to suppress the proliferation of CD8^+ T cells was monitored using [^3H]thymidine incorporation as the read-out. Thymidine incorporation in these T cells in the absence of DCs was taken as the control. When the T cells were cultured in the presence of IDO-positive DCs (10^5 cells), thymidine incorporation in T cells was suppressed by 63±3%. […] It is important to note that the concentration of α-MLT needed to inhibit IDO in DCs in this cell-based ex-vivo assay system (0.2 μM) is almost two orders of magnitude less than the IC50 observed for the inhibition of IDO in the cell-free assay system (˜20 μM). Based on these findings, it is expected that α-MLT will function as an anti-cancer agent in vivo by acting through two different mechanisms. […]

T2 sequence (P28776 whole entry): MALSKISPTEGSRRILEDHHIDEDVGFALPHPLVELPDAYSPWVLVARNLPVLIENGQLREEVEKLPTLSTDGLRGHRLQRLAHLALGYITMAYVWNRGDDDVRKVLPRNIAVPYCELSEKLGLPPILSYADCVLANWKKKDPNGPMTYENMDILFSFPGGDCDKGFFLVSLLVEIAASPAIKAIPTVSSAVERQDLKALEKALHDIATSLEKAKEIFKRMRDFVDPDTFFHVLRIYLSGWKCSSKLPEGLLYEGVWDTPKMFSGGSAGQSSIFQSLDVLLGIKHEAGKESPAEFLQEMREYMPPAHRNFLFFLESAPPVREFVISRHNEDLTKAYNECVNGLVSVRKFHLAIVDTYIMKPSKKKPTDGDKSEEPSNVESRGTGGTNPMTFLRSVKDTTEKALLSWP
T3 sequence (P28776 whole entry): as above

Compound: CC(N)(Cc1c[nH]c2ccccc12)C(=O)O (racemic) [α-methyl-DL-tryptophan]
- potency as a blocker of ATB0,+ (in words) [1]: weak
- effect on ATB0,+-mediated glycine uptake [2]: inhibited
- reduction of tumor growth ([3]; in drinking water): approximately 50%
- reduction of tumor growth ([3]; intraperitoneal injection): approximately 50%
- induction of inward currents in ATB0,+-expressing Xenopus oocytes [4]: did not induce inward currents
- growth of MB231 cells in xenograft [5]: did not effect the growth
- growth of ZR75.1 cells in xenograft [6]: reduced growth
- potency as an IDO inhibitor (comparison, FIG. 1) [7]: significantly greater than that of 1-methyltryptophan
- growth of MCF7 cells in xenograft [8]: did not effect the growth

Compound: C[C@@](N)(Cc1c[nH]c2ccccc12)C(=O)O [D-isomer, α-methyl-D-tryptophan]
- inhibition at 1000 µM ([1]; even at 1 mM, Xenopus oocytes, amino acid mixture simulating the plasma): ≤ 40%

Compound: α-methyl-L-tryptophan [α-MLT]
- reversal of suppression of thymidine incorporation in T cells by IDO-positive DCs ([9]; 0.2 μM, IDO-positive DCs (10^5 cells)): completely reversed
- concentration needed to inhibit IDO in DCs in cell-based ex-vivo assay system ([9]; cell-based ex-vivo assay): 0.2 µM
- IC50 ([7]; read-out: IC50 observed for the inhibition of IDO in the cell-free assay system): ~20 µM

Compound: C[C@](N)(Cc1c[nH]c2ccccc12)C(=O)O [α-MLT, α-methyl-L-tryptophan]
- potency as a blocker of ATB0,+ (in words) [1]: more potent than α-methyl-D-tryptophan
- times less than the corresponding value for the DL-form ([1]; 50% maximal inhibition concentration, L-isomer vs DL-form): 14 times
- potency as an IDO inhibitor (comparison, FIG. 1) [7]: significantly more potent than the D-isomer
